# pEC50: −log10 of the molar value. Like-named read-outs stand apart in the source and are kept apart here.
# Assays:
# H1734 = experiment: Cell viability assay; type: cell-based; conditions: Homo sapiens, NCI-H1734, 24 h; H1734 (Lung); read-out: AZD5991 24h GI50
# Experimental: (§1) Cells were plated at 3000 cells/well in 384-well white plates in corresponding cell growth media. […] Caspase-3/7 activation was subsequently determined using a Caspase-Glo 3/7 Reagent (Promega) and viability was assayed using the CellTiter-Glo Reagent (Promega) as described in manufacturer’s instructions. Dose–response curves for caspase-3/7 activation and viability were plotted and analyzed (including EC50 and GI50 determination) using GraphPad Prism.
# MDAMB231 = experiment: Cell viability assay; type: cell-based; conditions: Homo sapiens, MDA-MB-231, 24 h; MDAMB231 (Breast); read-out: AZD5991 24h GI50
# Experimental: as §1
# LK2 = experiment: Cell viability assay; type: cell-based; conditions: Homo sapiens, LK-2, 24 h; LK2 (Lung); read-out: AZD5991 24h GI50
# Experimental: as §1
# WSUNHL = experiment: Cell viability assay; type: cell-based; conditions: Homo sapiens, WSU-NHL, 24 h, read-out: AZD5991 24h GI50
# Experimental: as §1
# WSUDLCL2 = experiment: Cell viability assay; type: cell-based; conditions: Homo sapiens, 24 h; WSUDLCL2 (NHL); read-out: AZD5991 24h GI50
# Experimental: as §1
# HL60 = experiment: Cell viability assay; type: cell-based; conditions: Homo sapiens, HL-60, 24 h; HL60 (AML); read-out: AZD5991 24h GI50
# Experimental: as §1
# Namalwa = experiment: Cell viability assay; type: cell-based; conditions: 24 h; Namalwa (NHL); read-out: AZD5991 24h GI50
# Experimental: as §1
# H2110 = experiment: Cell viability assay; type: cell-based; conditions: NCI-H2110, 24 h; H2110 (Lung); read-out: AZD5991 24h GI50
# Experimental: as §1
# SKBR3 = experiment: Cell viability assay; type: cell-based; conditions: Homo sapiens, SK-BR-3, 24 h; SKBR3 (Breast); read-out: AZD5991 24h GI50
# Experimental: as §1
# SBC5 = experiment: Cell viability assay; type: cell-based; conditions: Homo sapiens, SBC-5, 24 h; SBC5 (Lung); read-out: AZD5991 24h GI50
# Experimental: as §1
# DMS114 = experiment: Cell viability assay; type: cell-based; conditions: Homo sapiens, DMS-114, 24 h; DMS114 (Lung); read-out: AZD5991 24h GI50
# Experimental: as §1
# KMS12PE = experiment: Cell viability assay; type: cell-based; conditions: Homo sapiens, KMS-12-PE, 24 h; KMS12PE (MM); read-out: AZD5991 24h GI50
# Experimental: as §1
# MM1R = experiment: Cell viability assay; type: cell-based; conditions: MM.1R, 24 h, read-out: AZD5991 24h GI50
# Experimental: as §1
# 647V = experiment: Cell viability assay; type: cell-based; conditions: Homo sapiens, 24 h; 647V (Urology); read-out: AZD5991 24h GI50
# Experimental: as §1
# Colo205 = experiment: Cell viability assay; type: cell-based; conditions: Homo sapiens, COLO 205, 24 h; Colo205 (GI); read-out: AZD5991 24h GI50
# Experimental: as §1
# Sudhl6 = experiment: Cell viability assay; type: cell-based; conditions: Homo sapiens, SU-DHL-6, 24 h; Sudhl6 (NHL); read-out: AZD5991 24h GI50
# Experimental: as §1
# OE21 = experiment: Cell viability assay; type: cell-based; conditions: 24 h; OE21 (Others); read-out: AZD5991 24h GI50
# Experimental: as §1
# Toledo = experiment: Cell viability assay; type: cell-based; conditions: Homo sapiens, 24 h; Toledo (NHL); read-out: AZD5991 24h GI50
# Experimental: as §1
# OCIAML3 = experiment: Caspase-3/7 activation assay; type: cell-based; conditions: Homo sapiens, OCI-AML-3, 6 h
# Experimental: as §1
# [1] = test system: Eμ-Myc lymphoma cells, control; experiment: cells; conditions: Mus musculus, 24 h, read-out: apoptosis induction EC50 control
# Text: The retroviral plasmids to express human Bcl-2 family members in murine Eμ-Myc lymphoma cells are MSCV-hMCL-1-GFP, MSCV-hBCL-2-GFP, MSCV-hBCL-XL-GFP, MSCV-hBFL-1/A1-GFP, and MSCV-hBCL-w-GFP. To produce viruses, constructs of interest were co-transfected into HEK293T cells with the plasmid encoding the packaging viruses (p-CL-AMPHO provided by Phillip Darcy from Peter MacCallum Cancer Center, Melbourne, Australia) using standard calcium phosphate transient transfection technique. The retroviruses were harvested, filtered and used to infect target cells following standard procedures.
# Samples were then centrifuged, washed twice with PBS and analyzed by flow cytometry in a BD LSRFortessa. FACSDiva software was used for data collection and FlowJo software for data analysis.
# SKMEL24 = experiment: Cell viability assay; type: cell-based; conditions: Homo sapiens, SK-MEL-24, 24 h; SKMEL24 (Skin); read-out: AZD5991 24h GI50
# Experimental: as §1
# Sudhl5 = experiment: Cell viability assay; type: cell-based; conditions: Homo sapiens, SU-DHL-5, 24 h; Sudhl5 (NHL); read-out: AZD5991 24h GI50
# Experimental: as §1
# OCILY19 = experiment: Cell viability assay; type: cell-based; conditions: Homo sapiens, OCI-LY19, 24 h; OCILY19 (NHL); read-out: AZD5991 24h GI50
# Experimental: as §1
# BT549 = experiment: Cell viability assay; type: cell-based; conditions: Homo sapiens, BT-549, 24 h; BT549 (Breast); read-out: AZD5991 24h GI50
# Experimental: as §1
# JVM2 = experiment: Cell viability assay; type: cell-based; conditions: Homo sapiens, JVM-2, 24 h; JVM2 (NHL); read-out: AZD5991 24h GI50
# Experimental: as §1
# H1568 = experiment: Cell viability assay; type: cell-based; conditions: NCI-H1568, 24 h; H1568 (Lung); read-out: AZD5991 24h GI50
# Experimental: as §1
# [2] = Plasma protein binding in fetal calf serum; type: in vitro ADME; conditions: bovine, read-out: plasma protein binding, free
# MOLP8 = experiment: Cell viability assay; type: cell-based; conditions: Homo sapiens, MOLP-8, 24 h; MOLP8 (MM); read-out: AZD5991 24h GI50
# H1703 = experiment: Cell viability assay; type: cell-based; conditions: Homo sapiens, NCI-H1703, 24 h; H1703 (Lung); read-out: AZD5991 24h GI50
# Experimental: as §1
# GRANTA519 = experiment: Cell viability assay; type: cell-based; conditions: Homo sapiens, Granta-519, 24 h; GRANTA519 (NHL); read-out: AZD5991 24h GI50
# Experimental: as §1
# Sudhl2 = experiment: Cell viability assay; type: cell-based; conditions: Homo sapiens, SU-DHL-2, 24 h; Sudhl2 (NHL); read-out: AZD5991 24h GI50
# Experimental: as §1
smiles,measurement,setting,value
"Cc1c2c(nn1C)CSCc1cc(n(C)n1)CSc1cc(c3ccccc3c1)OCCCc1c(C(=O)O)n(C)c3c-2c(Cl)ccc13 (atropisomer, axis not shown; (Ra)) [(Ra)-7]",GI50,H1734,13800 nM
same,GI50,MDAMB231,> 30000 nM
same,GI50,LK2,> 30000 nM
same,GI50,WSUNHL,221 nM
same,GI50,WSUDLCL2,109 nM
same,GI50,HL60,543 nM
same,GI50,Namalwa,39 nM
same,GI50,H2110,140 nM
same,GI50,SKBR3,118 nM
same,GI50,SBC5,541 nM
same,GI50,DMS114,219 nM
same,GI50,KMS12PE,329 nM
same,GI50,MM1R,87 nM
same,GI50,647V,22300 nM
same,GI50,Colo205,20500 nM
same,GI50,Sudhl6,15 nM
same,GI50,OE21,> 30000 nM
same,GI50,Toledo,113 nM
same,pEC50,"OCIAML3; read-out: 6h caspase EC50, OCIAML3, single agent",< 6.48
same,pEC50,"OCIAML3; read-out: AZD5991 6h EC50, OCIAML3 (AML), caspase 3/7 activation",6.11
same,pEC50,[1],5.97
same,GI50,SKMEL24,17900 nM
same,GI50,Sudhl5,18 nM
same,GI50,OCILY19,140 nM
same,GI50,BT549,250 nM
same,GI50,JVM2,547 nM
same,GI50,H1568,272 nM
same,fraction unbound,[2],0.001
same,GI50,MOLP8,52 nM
same,GI50,H1703,346 nM
same,GI50,GRANTA519,19300 nM
same,GI50,Sudhl2,585 nM

# Reference: paper PMC6297231 (Nature Communications, 2018)
